Activity calls are given as the source filed them. The calls are words filed in the database; no cut-off is given here.

One data set has as its system BMMC. Description: Anti-osteoporosis activity in C57BL/6 mouse bone marrow macrophage cells assessed as inhibition of RANKL-induced osteoclastogenesis at more than 10 uM measured after 5 days in presence of MCSF by TRAP staining based assay. In kind it is functional, cell-based. The following applies: time 5.0 day.
Take `CC(C)(C)OC(=O)N1CC[C@]2(C(=O)Nc3ccccc32)[C@H]1c1cc(F)cc(-c2ccc(CC(=O)O)c(Cl)c2)c1`: the inhibition entry is “inactive”. Still for that read-out and setting: the result for `CC(C)(C)OC(=O)N1CC[C@]2(C(=O)Nc3ccccc32)[C@H]1c1cc(F)cc(-c2ccc(C(=O)O)c(S(C)(=O)=O)c2)c1` reads “inactive”.

The next data set concerns BMMC. Description: Cytotoxicity against C57BL/6 mouse bone marrow macrophage cells assessed as reduction in cell viability up to 10 uM incubated for 72 hrs by MTT assay.
Details: not given
In kind it is toxicity, cell-based. (In general: Tetrazolium dyes change colour on reduction, which living cells bring about.)
`COC(=O)c1ccc(-c2cc(F)cc([C@H]3N(C(=O)OC(C)(C)C)CC[C@]34C(=O)Nc3ccccc34)c2)cc1S(C)(=O)=O`: the Activity result was “Non-Toxic”.

The next data set has as its system BMMC. Description: Anti-osteoporosis activity in C57BL/6 mouse bone marrow macrophage cells assessed as inhibition of RANKL-induced osteoclastogenesis measured after 5 days in presence of MCSF by TRAP staining based assay. The following applies: C57BL/6, BMMC, 120 h. In kind it is functional, cell-based.
The term IC50 denotes the point on the concentration scale where inhibition reaches its midpoint. With `COCc1ccc(-c2cc(F)cc([C@H]3N(S(=O)(=O)C(C)C)CC[C@]34C(=O)N(C)c3ccccc34)c2)cc1S(C)(=O)=O`, the IC50 was 200 nM. In the case of `COC(=O)c1ccc(-c2cccc([C@H]3N(C(=O)OC(C)(C)C)CC[C@]34C(=O)N(C)c3ccccc34)c2)cc1S(C)(=O)=O`, the IC50 stood at 200 nM. `COC(=O)c1c(F)cc(-c2cc(F)cc([C@H]3N(C(=O)OC(C)(C)C)CC[C@]34C(=O)Nc3ccccc34)c2)cc1F`: the concentration for half-maximal inhibition (IC50) is 4140 nM. In the case of `COC(=O)c1cn(C)c2cc(-c3cc(F)cc([C@H]4N(C(=O)OC(C)(C)C)CC[C@]45C(=O)Nc4ccccc45)c3)ccc12`, the IC50 amounted to 1560 nM. Still for that read-out and setting: for `CC(C)(C)OC(=O)N1CC[C@]2(C(=O)Nc3ccccc32)[C@H]1c1cccc(-c2ccc(CO)c(S(C)(=O)=O)c2)c1` the value was 200 nM; for `COC(=O)c1c[nH]c2cc(-c3cc(F)cc([C@H]4N(C(=O)OC(C)(C)C)CC[C@]45C(=O)Nc4ccccc45)c3)ccc12`, 2890 nM; for `COC(=O)Cn1ccc2cc(-c3cc(F)cc([C@H]4N(C(=O)OC(C)(C)C)CC[C@]45C(=O)Nc4ccccc45)c3)ccc21`, 3400 nM.

As to `COC(=O)c1ccc(-c2cc(F)cc([C@H]3N(S(=O)(=O)C(C)C)CC[C@]34C(=O)N(C)c3ccccc34)c2)cc1S(C)(=O)=O`, the half-inhibitory concentration (IC50) was 200 nM. For the compound `COC(=O)c1ccc(-c2cc(F)cc([C@H]3N(C(=O)OC(C)(C)C)CC[C@]34C(=O)N(C)c3ccccc34)c2)cc1S(C)(=O)=O`, the IC50 was 2170 nM. Consider `COCc1ccc(-c2cc(F)cc([C@H]3N(C(=O)OC(C)(C)C)CC[C@]34C(=O)N(C)c3ccccc34)c2)cc1S(C)(=O)=O`, for which the half-inhibitory concentration (IC50) turned out to be 220 nM. The same measure, in the same setting: for `COC(=O)Cc1ccc(-c2cc(F)cc([C@H]3N(C(=O)OC(C)(C)C)CC[C@]34C(=O)Nc3ccccc34)c2)cc1Cl` the value was 3400 nM; for `COC(=O)c1ccc(-c2cc(F)cc([C@H]3N(C(=O)OC(C)(C)C)CC[C@]34C(=O)Nc3ccccc34)c2)cc1Cl`, 8780 nM. Consider `CC(C)(C)CC(=O)N1CC[C@]2(C(=O)Nc3ccccc32)[C@H]1c1cccc(-c2ccc(CO)c(S(C)(=O)=O)c2)c1`, for which the IC50 was 360 nM.

The record behind these values is ChEMBL document CHEMBL5316277, “Discovery of Spiro[pyrrolidine-3,3'-oxindole] LXRβ Agonists for the Treatment of Osteoporosis” (J Med Chem, 2023).
